Reference: US6472415B1, “Androgen receptor suppressors in the therapy and diagnosis of prostate cancer, alopecia and other hyper-androgenic syndromes” (priority 1998, dated 2002)
Like-named read-outs stand apart in the source and are kept apart here.

How the values were obtained:
[1] = target: T1, AR (Homo sapiens, UniProt P10275); assay: Interaction of non-radioactive iodine compounds with AR; details: compounds containing non-radioactive iodine
T1 sequence (P10275 1-920): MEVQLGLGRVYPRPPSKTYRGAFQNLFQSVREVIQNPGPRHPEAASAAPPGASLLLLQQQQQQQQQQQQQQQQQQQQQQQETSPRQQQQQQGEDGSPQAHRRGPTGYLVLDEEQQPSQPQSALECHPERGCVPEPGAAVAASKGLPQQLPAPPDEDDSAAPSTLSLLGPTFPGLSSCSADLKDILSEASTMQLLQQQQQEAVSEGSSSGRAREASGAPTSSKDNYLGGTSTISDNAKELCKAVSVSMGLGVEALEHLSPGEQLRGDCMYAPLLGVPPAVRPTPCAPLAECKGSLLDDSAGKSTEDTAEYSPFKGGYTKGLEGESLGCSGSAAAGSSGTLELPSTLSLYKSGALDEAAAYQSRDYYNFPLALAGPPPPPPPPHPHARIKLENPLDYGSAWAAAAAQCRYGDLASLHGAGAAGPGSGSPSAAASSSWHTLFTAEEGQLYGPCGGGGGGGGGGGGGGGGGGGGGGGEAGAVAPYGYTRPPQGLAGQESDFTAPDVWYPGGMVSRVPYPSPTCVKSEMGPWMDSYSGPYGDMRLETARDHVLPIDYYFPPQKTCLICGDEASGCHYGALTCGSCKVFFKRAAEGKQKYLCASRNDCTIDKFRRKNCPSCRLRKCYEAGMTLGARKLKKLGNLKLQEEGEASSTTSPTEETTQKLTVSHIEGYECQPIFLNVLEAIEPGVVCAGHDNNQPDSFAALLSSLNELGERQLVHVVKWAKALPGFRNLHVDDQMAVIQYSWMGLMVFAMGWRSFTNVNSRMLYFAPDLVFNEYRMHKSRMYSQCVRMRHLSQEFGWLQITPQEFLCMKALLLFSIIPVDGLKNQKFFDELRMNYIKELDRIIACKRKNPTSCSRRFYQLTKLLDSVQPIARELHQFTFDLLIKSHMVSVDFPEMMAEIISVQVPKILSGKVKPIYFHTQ

[2] = system: androgenic alopecia
[3] = rabbits, 2× daily 0.5 mL of 10% solution in 50/50 PEG 400/EtOH, shaved skin 20 cm^2; HPLC sensitivity 5 nanograms
[4] = i.m., 75 mg/kg bw
[5] = system: prostate and seminal vesicles; assay: Weight of prostate and seminal vesicles (secondary sex organs) in rats; format: in vivo
Description: (The dose of 0.1 mg/kg approximates the expected topical daily dose for humans).

[6] = human, serum
Description: Compounds were tested for stability in human serum at 38° C. They were dissolved in isopropanol/H2O (95:5), mixed with human serum to a concentration of 0.5 mg/mL, and incubated at 38° C. Serum aliquots were extracted with ethyl acetate and analyzed by HPLC.
(Permadi, H.; Lundgren, B.; Andersson, K.; Sundberg, C.; DePierre, J. W. Effects of perfluoro fatty acids on peroxisome proliferation and mitochondrial size in mouse liver: dose and time factors and effect of chain length. Xenobiotica, 91993) Vol. 23, No. 7, pp.761-70).

[7] = Systemic toxicity, repeated i.p. injection in mice; format: in vivo
Description: Systemic toxicity was orientationally evaluated by i.p. injection every 2nd day in mice. […] For BP-34, the corresponding values were 150 mg/kg bw and 300 mg/kg bw.
The maximum tolerated dose should thus be approximately 300 mg/kg. For BP-34, i.p. injections of 100-300 mg/kg produce no mortalities in mice. […] Therefore, the maximum tolerated dose of BP-34 should be approximately 250 mg/kg.

[8] = male and female Wistar rats, highest dose tested
[9] = probit analysis
[10] = rabbits, topical twice daily, ten days
Description: (§1) Serum samples were collected at 2, 5 and 21 hours after the first application, and once every other day, thereafter. Serum samples were processed and analyzed by HPLC.
The rabbits were also observed daily for signs of cutaneous irritation.

[11] = not given; remark: listed apart in the source
[12] = four rabbits, topically twice daily (0.6 mg/kg-day), ten days; limit of detection approximately 10 ng/ml
Description: as §1

[13] = Takagi et al. 1991; cited from earlier work
[14] = Permadi et al. 1993; cited from earlier work
[15] = Rabbit, skin 20 cm^2, 100 mg/d, 10 d

## CC1(C)C(=O)N(c2ccc(C#N)c(C(F)(F)F)c2)C(=S)N1C/C=C/I [BP-305, 4-[3′-trans-(2″-propenyl-3″-iodo)-4′,4′-dimethyl-5′-oxo-2′-thioxo-1-imidazolidinyl]-2-trifluoromethylbenzonitrile]
[1]
  Interaction with AR as compared to controls: shown to interact with AR

## CC(O)(CNC(=O)C(F)(F)C(F)(F)C(F)(F)F)C(=O)Nc1ccc([N+](=O)[O-])c(C(F)(F)F)c1 (stereo not drawn) [BP-521, 4-nitro-3-trifluoromethyl-N-(2′-hydroxy-2′-methyl-3′-N-(heptafluorobutyramido)propionyl)aniline]
[2]; three male volunteers, 1% solution in ethanol, 0.5 mL twice daily on scalp
  Effect on incipient androgenic alopecia of the forehead line: effectively arrested incipient androgenic alopecia
[2]; three male volunteers, 1% solution in ethanol, 0.5 mL twice daily, after 8 weeks
  Hair growth: induced copious growth of vellum hair
Rabbit ~3 kg, i.p., 150 mg/kg bw, 0.5 hrs
  μg/ml blood: 1.9 µg/mL
Rabbit ~3 kg, oral, 100 mg/kg bw, 0.5 hrs
  μg/ml blood: 1.5 µg/mL
Rabbit ~3 kg, skin 20 cm^2, 100 mg/d, 10 d, 0.5 hrs
  μg/ml blood: 0 µg/mL
Rabbit, i.p., 150 mg/kg bw
  Cumulative % dose: 2.8%
  Cumulative mg/total blood volume: 11.6 µg
Rabbit, i.p., 150 mg/kg bw, 1.0 hrs
  μg/ml blood: 3.2 µg/mL
Rabbit, i.p., 150 mg/kg bw, 1.5 hrs
  μg/ml blood: 1.9 µg/mL
Rabbit, i.p., 150 mg/kg bw, 2.5 hrs
  μg/ml blood: 1.5 µg/mL
Rabbit, i.p., 150 mg/kg bw, 7.0 hrs
  μg/ml blood: 3.0 µg/mL
Rabbit, i.p., 150 mg/kg bw, 24 hrs
  μg/ml blood: 2.2 µg/mL
Rabbit, oral, 100 mg/kg bw
  Cumulative % dose: 1.50%
  Cumulative mg/total blood volume: 3.0 µg
Rabbit, oral, 100 mg/kg bw, 1.0 hrs
  μg/ml blood: 1.7 µg/mL
Rabbit, oral, 100 mg/kg bw, 1.5 hrs
  μg/ml blood: 2.6 µg/mL
Rabbit, oral, 100 mg/kg bw, 2.5 hrs
  μg/ml blood: 1.5 µg/mL
Rabbit, oral, 100 mg/kg bw, 7.0 hrs
  μg/ml blood: 1.0 µg/mL
Rabbit, oral, 100 mg/kg bw, 24 hrs
  μg/ml blood: 1.0 µg/mL
[15]
  Cumulative % dose: 0%
  Cumulative mg/total blood volume: 0 µg
Rabbit, skin 20 cm^2, 100 mg/d, 10 d, 1.0 hrs
  μg/ml blood: 0 µg/mL
Rabbit, skin 20 cm^2, 100 mg/d, 10 d, 1.5 hrs
  μg/ml blood: 0 µg/mL
Rabbit, skin 20 cm^2, 100 mg/d, 10 d, 2.5 hrs
  μg/ml blood: 0 µg/mL
Rabbit, skin 20 cm^2, 100 mg/d, 10 d, 7.0 hrs
  μg/ml blood: 0 µg/mL
Rabbit, skin 20 cm^2, 100 mg/d, 10 d, 24 hrs
  μg/ml blood: 0 µg/mL
From the subcutaneous, muscle and intraperitoneal spaces
  Bioavailability: low
Oral test
  Peak serum levels as % of the injected dose: 0.0052%
[3]
  Topical absorption: No absorption was found
[4]; Rat ~140 g, 0.5 hrs
  μg/ml blood: 0.7 µg/mL
[4]; Rat
  Cumulative % dose: 2.9%
  Cumulative mg/total blood volume: 2.1 µg
[4]; Rat, 1.0 hrs
  μg/ml blood: 4.7 µg/mL
[4]; Rat, 1.5 hrs
  μg/ml blood: 2.2 µg/mL
[4]; Rat, 24 hrs
  μg/ml blood: 1.0 µg/mL
[5]; castrated rats supplemented with testosterone propionate, 0.1 mg/kg
  Reduction of secondary sex organs' weight: did not reduce
[5]; intact rats, 10 times subcutaneously 100 mg/kg
  Reduction of average weight of prostate and seminal vesicles: about 46%
[6]; 6 h
  Percent of the intact compound remaining in human serum: 97.5%
[6]; 24 h
  Percent of the intact compound remaining in human serum: 90.0%
[6]; 48 h
  Percent of the intact compound remaining in human serum: 84.0%
[6]; 144 h
  Percent of the intact compound remaining in human serum: 60.0%
[7]; i.p. every 2nd day
  Dose with morbidity but no mortality: 350 mg/kg bw
[7]; i.p. every 2nd day, 5 times
  Dose given without mortality or morbidity: 200 mg/kg bw

## CC(O)(CNC(=O)C(F)(F)F)C(=O)Nc1ccc([N+](=O)[O-])c(C(F)(F)F)c1 (stereo not drawn) [BP-766, 4-nitro-3-trifluoromethyl-N-(2′-hydroxy-2′-methyl-3′-N-(trifluoromethylamido)propionyl) aniline]
[8]
  LD50, acute oral: > 2500 mg/kg body weight
[9]; female NMRI mice
  LD50, acute oral: 2232.0 mg/kg
[9]; male NMRI mice
  LD50, acute oral: 2871.7 mg/kg
[10]
  Signs of cutaneous irritation: No signs of irritation
[2]; six volunteers (4 male, 2 female), 2% solution, 1 ml twice daily, after 2 weeks
  Effect on effluvium of the frontal hairline: arrested the effluvium of the frontal hairline in all six volunteers
[2]; six volunteers, 2% solution in anhydrous isopropanol, 1 ml twice daily (0.6 mg/kg), 8 weeks
  Dermal irritation: no dermal irritation
[2]; two volunteers, after 4 months use
  Regrowth: evident regrowth
[11]; 60/40 EtOH/H2O, 55° C., 0 hours
  % BP-766: 100%
[11]; 60/40 EtOH/H2O, 55° C., 24 hours
  % BP-766: 98.1%
[11]; 60/40 EtOH/H2O, 55° C., 48 hours
  % BP-766: 98.2%
[11]; 60/40 EtOH/H2O, RT, 0 hours
  % BP-766: 100%
[11]; 60/40 EtOH/H2O, RT, 24 hours
  % BP-766: 99.9%
[11]; 60/40 EtOH/H2O, RT, 48 hours
  % BP-766: 99.69%
[11]; Isopropanol (3-5% water), 55° C., 0 hours
  % BP-766: 100%
[11]; Isopropanol (3-5% water), 55° C., 6 hours
  % BP-766: 99.6%
[11]; Isopropanol (3-5% water), 55° C., 24 hours
  % BP-766: 99.1%
[11]; Isopropanol (3-5% water), 55° C., 144 hours
  % BP-766: 98.7%
[11]; anhydrous isopropanol, 50° C., 0 weeks
  % BP-766: 100%
[11]; anhydrous isopropanol, 50° C., 1 week
  % BP-766: 99.6%
[11]; anhydrous isopropanol, 50° C., 2 weeks
  % BP-766: 99.4%
[11]; anhydrous isopropanol, 50° C., 3 weeks
  % BP-766: 99.3%
[11]; anhydrous isopropanol, 50° C., 4 weeks
  % BP-766: 99.2%
[11]; anhydrous isopropanol, 50° C., 5 weeks
  % BP-766: 98.9%
[11]; anhydrous isopropanol, 50° C., 6 weeks
  % BP-766: 98.8%
[11]; anhydrous isopropanol, 50° C., 7 weeks
  % BP-766: 98.3%
[11]; anhydrous isopropanol, 50° C., 8 weeks
  % BP-766: 98.4%
[12]
  BP-766 and/or BP-34 in serum after topical application: No. BP-766 or BP-34 were found in any of the samples
[7]; i.p.
  Maximum tolerated dose: approximately 300 mg/kg
[7]; i.p., daily for seven days
  LD50 (daily dose for seven days that resulted in 50% mortality): 450 mg/kg bw

## O=C(O)C(F)(F)C(F)(F)C(F)(F)F [perfluorobutyric acid]
[13]
  Toxicity: low toxicity

## O=C(O)C(F)(F)F [trifluoroacetic acid]
[14]
  Toxicity when fed to mice: no toxicity
